Results published in ChEMBL document CHEMBL5241091, “Biguanides drugs: Past success stories and promising future for drug discovery” (Eur J Med Chem, 2021).
In brackets after ≈: the same amount, converted by molar mass. Values belong to the compound of their own block, whether it stands above or below them.

Assays:
Plasmodium falciparum [1] = test: Antimalarial activity against Plasmodium falciparum CH12; type: functional, organism-based
Plasmodium falciparum [2] = test: Antimalarial activity against Plasmodium falciparum GA3; type: functional, organism-based
[3] = Oral bioavailability in rat; type: ADME, organism-based; conditions: in vivo
Cavia porcellus = test: Hypoglycemic activity in sc dosed guinea pig assessed as glucose lowering effect; type: functional
[4] = Half life in po dosed human; type: ADME, organism-based; conditions: in vivo
Plasmodium berghei [5] = test: Potency index, ratio of chloroquine ED50 to test compound ED50 for antimalarial activity against Plasmodium berghei infected in mouse; type: functional
[6] = Inhibition of Plasmodium knowlesi DHFR
Plasmodium berghei [7] = test: Potency index, ratio of cycloguanil ED50 to test compound ED50 for antimalarial activity against Plasmodium berghei infected in mouse; type: functional
[8] = Toxicity in po dosed mouse; type: organism-based; conditions: in vivo
MCF7 [9] = test: Cytotoxicity against human MCF7 cells assessed as reduction in breast cancer stem cells at 5 mM after 48 hrs (reference value: 2.78%); type: functional; parameters: scale not given: the % may be the effect or the level left
[10] = Toxicity in sc dosed mouse; type: organism-based; conditions: in vivo
SW-620 = test: Synergistic antiproliferative activity against human SW620 cells assessed as reduction in cancer stem cells preincubated for 24 hrs followed by 5-FU addition and measured after 48 hrs (reference value: 21.30 +/- 1.40 %); type: functional; parameters: scale not given: the % may be the effect or the level left
Homo sapiens = organism: Homo sapiens; test: Antidiabetic activity in human assessed as reduction in hepatic glucose output; type: functional; parameters: scale not given: the % may be the effect or the level left
[11] = Toxicity in rat; conditions: in vivo
MCF7 [12] = test: Cytotoxicity against human MCF7 cells assessed as reduction in breast cancer stem cells at 1 mM after 48 hrs (reference value: 2.78%); type: functional; parameters: scale not given: the % may be the effect or the level left
Streptococcus = test: Antibacterial activity against Streptococcus beta-haemolyticus; type: functional
Clostridium septicum = test: Antibacterial activity against Clostridium septicum; type: functional
Streptococcus pyogenes = test: Antibacterial activity against Streptococcus pyogenes; type: functional

- IC50 (Plasmodium falciparum [1]): 326 ng/mL (≈ 0.822 µM)
- IC50 (Plasmodium falciparum [2]): 0.532 µg/mL (≈ 1.34 µM)
Compound: CC(C)/N=C(N)/N=C(\N)NOCCCOc1cc(Cl)c(Cl)cc1Cl

Compound: CC1(C)N=C(N)N=C(N)N1OCCCOc1cc(Cl)c(Cl)cc1Cl
- IC50 (Plasmodium falciparum [1]): 0.05 ng/mL (≈ 0.000127 µM)
- bioavailability [3]: ≤ 1%

Compound: CCCCNC(=N)NC(=N)N [BUFORMIN]
- MED (Cavia porcellus): 20 mg

- half-life [4]: 35 h
Compound: CC(C)NC(=N)NC(=N)Nc1ccc(Cl)c(Cl)c1 [CHLORPROGUANIL]

- EC50 [6]: 1 pM
Compound: CC1(C)N=C(N)N=C(N)N1OCc1ccc(Cl)c(Cl)c1 [CLOCIGUANIL]
- Ratio ED50 (Plasmodium berghei [5]): 10
- Ratio ED50 (Plasmodium berghei [7]): 30

Compound: CN(C)C(=N)NC(=N)N [METFORMIN]
- LD50 [8]: 1450 mg/kg
- Activity (MCF7 [9]): 1.29%
- LD50 [10]: 2200 mg/kg
- Activity (SW-620): 15.13%
- Activity (Homo sapiens): >=75%
- LD50 [11]: 1000 mg/kg
- MED (Cavia porcellus): 75 mg
- Activity (MCF7 [12]): 2.2%

Compound: N=C(N)/N=C(\N)N1CCOCC1 [MOROXYDINE]
- LD50 [8]: > 6250 mg/kg
- LD50 [10]: 225 mg/kg

Compound: N=C(N)NC(=N)NCCc1ccccc1 [PHENFORMIN]
- MED (Cavia porcellus): 7.5 mg

- MIC (Clostridium septicum): 300 µg/mL (≈ 631 µM)
- MIC (Streptococcus pyogenes): 760 µg/mL (≈ 1600 µM)
Compound: N=C(NC(=N)N1CCN(C(=N)NC(=N)Nc2ccc(Cl)cc2)CC1)Nc1ccc(Cl)cc1 [PICLOXYDINE]
- MIC (Streptococcus): 760 µg/mL (≈ 1600 µM)
